Here are results for 3 compounds from publication PMC6437697 (Journal of Medicinal Chemistry, 2019).

What all share (experiment): KINOMEscan
Format in all cases: binding
Details in all cases: read-out: % control activity remaining

In one test the target is T1, BTK (Homo sapiens, UniProt Q06187).
T1 construct: purchased Eurofins DiscoverX KINOMEscan

In a further test the target is T2, EPHB2 (Homo sapiens, UniProt P29323).
T2 construct: purchased Eurofins DiscoverX KINOMEscan
T2 sequence (P29323 19-1055): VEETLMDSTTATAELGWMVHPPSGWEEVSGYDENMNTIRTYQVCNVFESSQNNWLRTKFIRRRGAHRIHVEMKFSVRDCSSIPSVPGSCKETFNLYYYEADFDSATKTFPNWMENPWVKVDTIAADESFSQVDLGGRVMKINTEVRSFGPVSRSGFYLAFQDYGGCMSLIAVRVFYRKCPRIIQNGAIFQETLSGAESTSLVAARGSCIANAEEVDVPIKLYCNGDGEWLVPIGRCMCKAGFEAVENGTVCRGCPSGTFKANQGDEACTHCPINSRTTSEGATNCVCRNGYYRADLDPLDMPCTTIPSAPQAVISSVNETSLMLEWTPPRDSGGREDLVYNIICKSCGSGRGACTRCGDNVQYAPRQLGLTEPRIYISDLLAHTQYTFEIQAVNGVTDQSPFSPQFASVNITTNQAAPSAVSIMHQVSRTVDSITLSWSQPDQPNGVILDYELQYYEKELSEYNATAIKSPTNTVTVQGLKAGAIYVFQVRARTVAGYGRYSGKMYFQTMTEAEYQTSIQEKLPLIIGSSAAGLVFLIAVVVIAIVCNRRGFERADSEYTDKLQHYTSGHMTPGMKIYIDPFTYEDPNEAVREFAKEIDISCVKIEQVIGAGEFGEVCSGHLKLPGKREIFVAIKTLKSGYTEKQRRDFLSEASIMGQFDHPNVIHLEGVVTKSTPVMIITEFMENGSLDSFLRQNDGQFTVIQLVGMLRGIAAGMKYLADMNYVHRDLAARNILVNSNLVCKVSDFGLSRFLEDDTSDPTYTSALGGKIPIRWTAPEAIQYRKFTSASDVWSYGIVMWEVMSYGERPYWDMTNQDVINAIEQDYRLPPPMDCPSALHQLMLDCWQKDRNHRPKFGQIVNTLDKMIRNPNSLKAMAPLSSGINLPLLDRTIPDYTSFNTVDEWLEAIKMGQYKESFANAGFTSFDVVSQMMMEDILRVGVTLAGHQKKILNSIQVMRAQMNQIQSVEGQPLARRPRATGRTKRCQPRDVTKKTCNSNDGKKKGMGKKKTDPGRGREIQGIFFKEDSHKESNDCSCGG

In the next test the target is T3, RIPK4 (Homo sapiens, UniProt P57078).
T3 construct: purchased Eurofins DiscoverX KINOMEscan
T3 sequence (P57078 1-832): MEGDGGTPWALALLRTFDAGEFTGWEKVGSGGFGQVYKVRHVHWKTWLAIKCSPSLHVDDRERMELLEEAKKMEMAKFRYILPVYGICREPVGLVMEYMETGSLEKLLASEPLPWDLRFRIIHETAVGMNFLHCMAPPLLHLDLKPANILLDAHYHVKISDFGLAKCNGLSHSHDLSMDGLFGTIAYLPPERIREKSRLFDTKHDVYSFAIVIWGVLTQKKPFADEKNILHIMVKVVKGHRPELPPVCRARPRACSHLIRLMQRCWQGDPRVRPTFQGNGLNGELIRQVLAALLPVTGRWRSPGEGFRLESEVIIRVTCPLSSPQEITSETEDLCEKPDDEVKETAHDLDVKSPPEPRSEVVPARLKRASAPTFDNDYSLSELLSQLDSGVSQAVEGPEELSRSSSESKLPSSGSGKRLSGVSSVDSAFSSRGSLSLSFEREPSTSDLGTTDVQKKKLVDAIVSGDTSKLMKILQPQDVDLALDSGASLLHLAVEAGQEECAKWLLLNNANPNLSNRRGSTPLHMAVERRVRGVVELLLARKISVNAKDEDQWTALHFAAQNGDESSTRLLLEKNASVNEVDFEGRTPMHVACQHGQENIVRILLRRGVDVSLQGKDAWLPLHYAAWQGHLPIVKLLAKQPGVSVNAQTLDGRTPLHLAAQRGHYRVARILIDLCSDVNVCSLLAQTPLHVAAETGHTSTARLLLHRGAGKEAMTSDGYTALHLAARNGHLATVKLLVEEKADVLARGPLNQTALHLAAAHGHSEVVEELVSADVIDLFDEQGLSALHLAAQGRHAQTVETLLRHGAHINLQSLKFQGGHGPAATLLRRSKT

The target of another test is T4, ULK1 (Homo sapiens, UniProt O75385).
T4 construct: purchased Eurofins DiscoverX KINOMEscan
T4 sequence (O75385 1-1050): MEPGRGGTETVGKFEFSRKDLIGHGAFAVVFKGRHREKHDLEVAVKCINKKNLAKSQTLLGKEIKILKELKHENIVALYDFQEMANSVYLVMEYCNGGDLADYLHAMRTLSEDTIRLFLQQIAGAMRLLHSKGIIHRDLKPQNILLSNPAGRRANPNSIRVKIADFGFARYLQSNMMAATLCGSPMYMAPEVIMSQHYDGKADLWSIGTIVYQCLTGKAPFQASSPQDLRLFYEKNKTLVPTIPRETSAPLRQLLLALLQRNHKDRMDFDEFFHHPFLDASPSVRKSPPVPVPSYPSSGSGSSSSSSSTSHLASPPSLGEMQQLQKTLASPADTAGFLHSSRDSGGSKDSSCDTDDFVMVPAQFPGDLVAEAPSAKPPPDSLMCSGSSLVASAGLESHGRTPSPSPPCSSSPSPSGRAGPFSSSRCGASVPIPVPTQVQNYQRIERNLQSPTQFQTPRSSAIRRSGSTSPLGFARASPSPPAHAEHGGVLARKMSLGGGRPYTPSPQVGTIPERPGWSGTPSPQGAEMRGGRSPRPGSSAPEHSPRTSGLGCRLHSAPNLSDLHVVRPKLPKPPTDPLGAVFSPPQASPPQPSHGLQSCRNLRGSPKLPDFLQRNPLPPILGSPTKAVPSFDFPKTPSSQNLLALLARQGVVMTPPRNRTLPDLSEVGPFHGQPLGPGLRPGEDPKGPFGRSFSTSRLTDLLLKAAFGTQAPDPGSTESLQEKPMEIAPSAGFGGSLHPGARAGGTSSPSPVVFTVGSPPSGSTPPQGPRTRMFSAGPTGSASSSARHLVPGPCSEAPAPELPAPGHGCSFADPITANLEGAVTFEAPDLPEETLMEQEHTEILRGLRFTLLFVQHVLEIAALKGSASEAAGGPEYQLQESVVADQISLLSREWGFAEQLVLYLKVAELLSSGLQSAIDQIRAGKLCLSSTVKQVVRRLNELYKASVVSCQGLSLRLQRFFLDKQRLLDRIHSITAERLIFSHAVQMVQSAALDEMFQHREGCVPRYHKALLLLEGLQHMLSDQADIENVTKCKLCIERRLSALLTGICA

T1 sequence (Q06187 whole entry): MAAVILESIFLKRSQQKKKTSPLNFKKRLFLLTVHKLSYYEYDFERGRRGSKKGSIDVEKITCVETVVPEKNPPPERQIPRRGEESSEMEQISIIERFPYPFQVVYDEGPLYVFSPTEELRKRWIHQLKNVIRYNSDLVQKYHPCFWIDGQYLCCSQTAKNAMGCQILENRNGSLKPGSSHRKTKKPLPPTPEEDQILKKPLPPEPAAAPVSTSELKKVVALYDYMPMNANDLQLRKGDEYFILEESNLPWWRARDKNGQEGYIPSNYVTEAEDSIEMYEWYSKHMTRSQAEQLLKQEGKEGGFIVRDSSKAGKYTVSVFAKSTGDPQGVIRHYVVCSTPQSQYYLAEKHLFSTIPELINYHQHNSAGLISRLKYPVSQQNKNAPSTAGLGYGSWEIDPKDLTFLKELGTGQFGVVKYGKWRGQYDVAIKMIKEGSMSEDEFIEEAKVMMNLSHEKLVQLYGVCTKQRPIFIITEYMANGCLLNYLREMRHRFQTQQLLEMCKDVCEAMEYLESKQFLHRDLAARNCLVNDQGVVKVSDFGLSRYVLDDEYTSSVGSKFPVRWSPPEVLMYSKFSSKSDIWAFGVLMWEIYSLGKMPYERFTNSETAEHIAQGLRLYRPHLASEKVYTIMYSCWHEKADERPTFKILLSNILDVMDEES

For the compound `Clc1cc(NCC2CC2)c2ncc(-c3ccc4[nH]ncc4c3)n2n1` [compound 2, 6-Chloro-N-(cyclopropylmethyl)-3-(1H-indazol-5-yl)imidazo[1,2-b]pyridazin-8-amine], the remaining binding at 1 µM on BTK was 98%; at EPHB2, 83%; on RIPK4, 96%; on ULK1 it was 78%.

For `O=C(CN1CCOCC1)N[C@H]1CC[C@H](Nc2cc(Cl)nn3c(-c4ccc5[nH]ncc5c4)cnc23)CC1` [compound 26], the remaining binding at 1 µM on BTK is 100%; on EPHB2 it was 94%; on RIPK4, 95%; on ULK1 it was 97%.

With `CN1CCC(CNc2cc(Cl)nn3c(-c4cc5nc(Nc6ccccc6)[nH]c5cc4F)cnc23)CC1` [compound 31, 6-Chloro-3-(6-fluoro-2-(phenylamino)-1H-benzo[d]imidazol-5-yl)-N-((1-methylpiperidin-4-yl)methyl)imidazo[1,2-b]pyridazin-8-amine], the remaining binding at 1 µM was 70% at BTK, 96% on EPHB2, 98% on RIPK4 and 79% on ULK1.
